From patent US7115642B2, “Substituted diphenyl isoxazoles, pyrazoles and oxadiazoles useful for treating HCV infection” (priority 2003, dated 2006)
Where two headings read alike, the source gives them in different places.

Key:
[1] = tested on: HCV nonstructural protein NS5A or NS3 in 9–13 replicon cells; assay: Quantitative Western blot assay; assay type: cell-based, Hepatitis C virus; conditions: 9–13 replicon cells, NS5A or NS3 Western blot; read-out: Western IC50
Procedure: Alternatively, the inhibitory activity of the compounds can be confirmed using a quantitative Western immunoblot assay utilizing antibodies specific for HCV non-structural proteins, such as NS3, NS4A NS5A and NS5B. In one embodiment of this assay, replicon cells are treated with varying concentrations of test compound to determine the concentration of test compound that yields a 50% reduction in the amount of a non-structural protein produced as compared to a control sample (IC50). A single non-structural protein may be quantified or multiple non-structural proteins may be quantified. Antibodies suitable for carrying out such immunoblot assays are available commercially (e.g., from BIODESIGN International, Saco, Me.).
Certain exemplary compounds of the invention were also tested for their ability to inhibit HCV replication using a quantitative Western blot analysis with antibodies specific for the HCV nonstructural protein NS5A or NS3. Actively dividing 9–13 replicon cells were seeded into Swell plates at a density of 1×10^5 cells/well in a volume of 2 ml/well and incubated at 37° C. and 5% CO2 for 24 hours. Various concentrations of test compounds (in a volume of 10 ul) were added to the wells and the cells incubated for another 48 hours. Protein samples were prepared from the cultured cells, resolved on a SDS-PAGE gel and transferred to a nitrocellulose membrane. The membrane was blocked with 5% non-fat milk in PBS for 1 hour at room temperature. Primary antibody (anti NS5A antibody; BIODESIGN International, Saco, Me. or anti NS3 antibody, Rigel) incubation was performed for 1 hour at room temperature, after which the membrane was washed 3 times (for 15 min per time) with PBST (PBS plus 0.1% Tween 20). Horseradish peroxidase conjugated secondary antibody incubation was performed for 1 hour at room temperature and the membrane was washed 3 times (for 15 min per time) with PBST. The membrane was then soaked in substrate solution (Pierce) and exposed to a film or quantified using an imager. In this assay, the amount of test compound that yielded a 50% reduction in the amount of NS5A or NS3 protein translated as compared to a control sample (IC50) was determined.
In TABLE 1, a value of “+” indicates an IC50 of 10 μM or less in the specified assay; a value of “−” indicates an IC50 of greater than 10 μM in the specified assay.

[2] = tested on: HCV replicon (5-2 Luc replicon-comprising cells); assay: HCV replicon assay (luciferase); assay type: cell-based, Hepatitis C virus; conditions: 5-2 Luc replicon cells, luciferase readout, read-out: Replicon IC50
In short: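 Readout: IC50 from a 50% drop in luciferase signal (Bright-Glo, luminometer), scored + (≤10 μM) or − (>10 μM). Compounds added at various concentrations to 5-2 Luc replicon cells (Huh7 background), pre-incubated 24 h, then incubated 24 h more before reading.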

[3] = Cytotoxicity assay (Cell Titer Glo); assay type: cell-based; conditions: human; 48 hr with compound, ATP-dependent Cell Titer Glo assay; read-out: IC50 in cytotoxicity assay (number of viable cells)
Procedure: Compounds 67, 167, 169, 13, 1, 145, 29, 119, 63, 31, 39, 103, 123, 121, 97, 129, 79, 111, 85, 89, 109, 127, 131, 95, 47, 57, 69, 165, 161, 163, 3, 137, 15, 141, 41, 53, 33, 113, 93, 105, 77, 91, 81, 83, 35, 27, 65, 7, 135, 51, 139, 51, 49, 143, 5, 149, 11, 37, 21, 45, 61, 75, 23, 125, 73, 43, 171 and 101 were tested in a cytotoxicity assay with liver cells including an HCV replicon (5-2 Luc cells, 9–13 cells or Huh-7 cells). In the assay, cells were seeded onto 96-well plates (approx. 7500 cells/well in a volume of 90 μl) and grown for 24 hr at 37° C. On day 2, various concentrations of test compound (in a volume of 10 μl) were added to the wells and the cells were grown for an additional 48 hr at 37° C. On day 4, an ATP-dependent R-Luciferase assay (Cell Titer Glo assay) was performed to determine the number of viable cells.

SMILES | IC50 [1] | IC50 [2] | IC50 ([2]; Hepatitis C virus) | IC50 at 48 h [3]
O=C(Nc1cccc(-c2cc(-c3c(Cl)cccc3N3CCOCC3)no2)c1)C(Cl)Cl [Compound 7, 2,2-Dichloro-N-[3-[3-[2-chloro-6-(N-morpholino)phenyl]-5-isoxazolyl]phenyl]Acetamide] | < 10 µM | – | – | –
CSc1cccc(F)c1-c1cc(-c2cccc(NC(=O)C(Cl)Cl)c2)on1 [Compound 11, 2,2-Dichloro-N-[3-[3-(2-fluoro-6-thiomethylphenyl)-5-isoxazolyl]phenyl]Acetamide] | < 10 µM | < 10 µM | – | –
Cc1cccc(C(F)(F)F)c1-c1cc(-c2cccc(NC(=O)C(Cl)Cl)c2)on1 [Compound 85, 2,2-Dichloro-N-[3-[3-(2-methyl-6-trifluoromethylphenyl)-5-isoxazolyl]phenyl]Acetamide] | – | – | < 10 µM | > 10 µM
O=C(Nc1cccc(-c2cc(-c3c(C4CC4)cccc3C(F)(F)F)no2)c1)C(Cl)Cl [Compound 89, 2,2-Dichloro-N-[3-[3-(2-cyclopropyl-6-trifluoromethylphenyl)-5-isoxazolyl]phenyl]Acetamide] | – | – | < 10 µM | > 10 µM
COc1cccc(C)c1-c1cc(-c2cccc(NC(=O)C(Cl)Cl)c2)on1 [Compound 91, 2,2-Dichloro-N-[3-[3-(2-methoxy-6-methylphenyl)-5-isoxazolyl]phenyl]Acetamide] | – | – | < 10 µM | > 10 µM
CC(C)c1cccc(C(F)(F)F)c1-c1cc(-c2cccc(NC(=O)C(Cl)Cl)c2)on1 [Compound 93, 2,2-Dichloro-N-[3-[3-(2-isopropyl-6-trifluoromethylphenyl)-5-isoxazolyl]phenyl]Acetamide] | – | – | < 10 µM | > 10 µM
O=C(Nc1cccc(-c2cc(-c3c(Cl)cccc3C3CCCC3)no2)c1)C(Cl)Cl [Compound 97, 2,2-Dichloro-N-[3-[3-(2-chloro-6-cyclopentylphenyl)-5-isoxazolyl]phenyl]Acetamide] | – | – | < 10 µM | > 10 µM
CCCCc1cccc(Cl)c1-c1cc(-c2cccc(NC(=O)C(Cl)Cl)c2)on1 [Compound 103, 2,2-Dichloro-N-[3-[3-(2-chloro-6-n-butylphenyl)-5-isoxazolyl]phenyl]Acetamide] | – | – | < 10 µM | > 10 µM
O=C(Nc1cccc(-c2cc(-c3c(C4CCCC4)cccc3C(F)(F)F)no2)c1)C(Cl)Cl [Compound 105, 2,2-Dichloro-N-[3-[3-(2-cyclopentyl-6-trifluoromethylphenyl)-5-isoxazolyl]phenyl]Acetamide] | – | – | < 10 µM | > 5 µM
CN1CCN(c2cccc(C(F)(F)F)c2-c2cc(-c3cccc(NC(=O)C(Cl)Cl)c3)on2)CC1 [Compound 109, 2,2-Dichloro-N-[3-[3-[2-trifluoromethyl-6-(4-methylpiperazino)phenyl]-5-isoxazolyl]-phenyl]Acetamide] | – | – | < 10 µM | > 10 µM
O=C(Nc1cccc(-c2cc(-c3c(Cl)cccc3C3CCCCC3)no2)c1)C(Cl)Cl [Compound 111, 2,2-Dichloro-N-[3-[3-(2-chloro-6-cyclohexylphenyl)-5-isoxazolyl]phenyl]Acetamide] | – | – | < 10 µM | > 10 µM
O=C(Nc1cccc(-c2cc(-c3ccccc3OC(F)(F)F)no2)c1)C(Cl)Cl [Compound 113, 2,2-Dichloro-N-[3-[3-(2-trifluoromethoxyphenyl)-5-isoxazolyl]phenyl]Acetamide] | – | – | < 10 µM | > 10 µM
CC(C)Oc1ccccc1-c1cc(-c2cccc(NC(=O)C(Cl)Cl)c2)on1 [Compound 119, 2,2-Dichloro-N-[3-[3-(2-isopropyloxyphenyl)-5-isoxazolyl]phenyl]Acetamide] | – | – | < 10 µM | > 10 µM
CC(C)c1cccc(C(C)C)c1-c1cc(-c2cccc(NC(=O)C(Cl)Cl)c2)on1 [Compound 121, 2,2-Dichloro-N-[3-[3-(2,6-diisopropylphenyl)-5-isoxazolyl]phenyl]Acetamide] | – | – | < 10 µM | > 10 µM
COc1ccc(NC(=O)C(Cl)Cl)cc1-c1cc(-c2c(Cl)cccc2Cl)no1 [Compound 127, 2,2-Dichloro-N-[3-[3-(2,6-dichlorophenyl)-5-isoxazolyl]4-methoxyphenyl]Acetamide] | – | – | < 10 µM | > 10 µM
O=C(Nc1cccc(-c2cc(-c3ccccc3C3CCCC3)no2)c1)C(Cl)Cl [Compound 129, 2,2-Dichloro-N-[3-[3-(2-cyclopentylphenyl)-5-isoxazolyl]phenyl]Acetamide] | – | – | < 10 µM | > 10 µM
O=C(Nc1cccc(-c2cc(-c3c(Cl)ccc(Cl)c3Cl)no2)c1)C(Cl)Cl [Compound 137, 2,2-Dichloro-N-[3-[3-(2,3,6-trichlorophenyl)-5-isoxazolyl]phenyl]Acetamide] | – | – | > 10 µM | > 10 µM
O=C(O)c1ccc(Cl)c(-c2cc(-c3cccc(NC(=O)C(Cl)Cl)c3)on2)c1Cl [Compound 139, 2,2-Dichloro-N-[3-[3-(3-carboxy-2,6-dichlorophenyl)-5-isoxazolyl]phenyl]Acetamide] | – | – | > 10 µM | > 10 µM
O=C(Nc1cccc(-c2cc(-c3cc(C(F)(F)F)ccc3Cl)no2)c1)C(Cl)Cl [Compound 141, 2,2-Dichloro-N-[3-[3-(2-chloro-5-trifluoromethylphenyl)-5-isoxazolyl]phenyl]Acetamide] | – | – | > 10 µM | > 10 µM
O=C(Nc1cccc(-c2cc(-c3c(Cl)cccc3Cl)no2)c1)C(F)F [Compound 145, 2,2-Difluoro-N-[3-[3-(2,6-dichlorophenyl)-5-isoxazolyl]phenyl]Acetamide] | – | – | > 10 µM | > 10 µM
Cc1ccc(F)c(-c2cc(-c3cccc(NC(=O)C(Cl)Cl)c3)on2)c1F [Compound 149, 2,2-Dichloro-N-[3-[3-(2,6-difluoro-3-methylphenyl)-5-isoxazolyl]phenyl]Acetamide] | – | – | > 10 µM | > 10 µM
O=C(Nc1cccc(-c2cc(-c3ccccc3OCc3ccccc3)no2)c1)C(Cl)Cl [Compound 161, 2,2-Dichloro-N-[3-[3-(2-benzyloxyphenyl)-5-isoxazolyl]phenyl]Acetamide] | – | – | > 10 µM | > 10 µM
Cc1ccc(-c2cc(-c3c(Cl)cccc3Cl)no2)cc1NC(=O)C(Cl)Cl [Compound 165, 2,2-Dichloro-N-[3-[3-(2,6-dichlorophenyl)-5-isoxazolyl]-6-methylphenyl]Acetamide] | – | – | > 10 µM | > 10 µM
Cc1c(NC(=O)C(Cl)Cl)cccc1-c1cc(-c2c(Cl)cccc2Cl)no1 [Compound 167, 2,2-Dichloro-N-[3-[3-(2,6-dichlorophenyl)-5-isoxazolyl]-2-methylphenyl]Acetamide] | – | – | > 10 µM | > 10 µM
NC1CCN(c2cccc(Cl)c2-c2cc(-c3cccc(NC(=O)C(Cl)Cl)c3)on2)C1 (stereo not drawn) [Compound 673] | < 10 µM | – | – | –
CN(C)C(=O)NC1CCN(c2cccc(Cl)c2-c2cc(-c3cccc(NC(=O)C(Cl)Cl)c3)on2)C1 (stereo not drawn) [Compound 675] | < 10 µM | – | – | –
CS(=O)(=O)NC1CCN(c2cccc(Cl)c2-c2cc(-c3cccc(NC(=O)C(Cl)Cl)c3)on2)C1 (stereo not drawn) [Compound 682] | < 10 µM | – | – | –
O=C(Nc1cccc(-c2cc(-c3c(Cl)cccc3C(=O)N3CCOCC3)no2)c1)C(Cl)Cl [Compound 689] | < 10 µM | – | – | –
